How the values were obtained:
[1] = biological target: T1, His-tagged protein corresponding to amino acids 575-869 of human Tyk2 (Homo sapiens, UniProt P29597); experiment: Probe displacement assay (scintillation proximity, radiolabeled probe); assay type: binding; conditions: 2.5 nM Tyk2 (575-869), 40 nM [3H] probe, 30 minutes at room temperature
T1 construct: made in house
Experimental: The preparation of radiolabeled probe, (R)—N-(1-(3-(8-methyl-5-(methylamino)-8H-imidazo[4,5-d]thiazolo[5,4-b]pyridin-2-yl)phenyl)ethyl)-2-([^3H]methylsulfonyl)benzamide, was performed as described below: […]

[2] = tested on: IL-23-stimulated Kit225 T cells with STAT-dependent luciferase reporter; experiment: Kit225 T cell assay, STAT-dependent luciferase reporter, IL-23 stimulated; assay type: cell-based, human; conditions: Homo sapiens, KIT225, 20 ng/mL human recombinant IL-23, 5-6 hours, read-out: IL-23 Kit225 Reporter, LE (IC50)
Summary of the method: (§1)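 Kit225 T cells carrying a stably integrated STAT-dependent luciferase reporter, in RPMI with 10% heat-inactivated FBS, stimulated with 20 ng/mL human recombinant IL-23 or 200 U/mL human recombinant IFNα for 5-6 h. Luciferase expression read by Steady-Glo luminescence.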

[3] = tested on: IFNα-stimulated Kit225 T cells with STAT-dependent luciferase reporter; experiment: Kit225 T cell assay, STAT-dependent luciferase reporter, IFNα stimulated; assay type: cell-based, human; conditions: Homo sapiens, KIT225, 200 U/mL human recombinant IFNα, 5-6 hours, read-out: IFNa Kit225 Reporter, LE (IC50)
Summary of the method: as §1

T1 sequence (P29597 with tags, fused parts or gaps): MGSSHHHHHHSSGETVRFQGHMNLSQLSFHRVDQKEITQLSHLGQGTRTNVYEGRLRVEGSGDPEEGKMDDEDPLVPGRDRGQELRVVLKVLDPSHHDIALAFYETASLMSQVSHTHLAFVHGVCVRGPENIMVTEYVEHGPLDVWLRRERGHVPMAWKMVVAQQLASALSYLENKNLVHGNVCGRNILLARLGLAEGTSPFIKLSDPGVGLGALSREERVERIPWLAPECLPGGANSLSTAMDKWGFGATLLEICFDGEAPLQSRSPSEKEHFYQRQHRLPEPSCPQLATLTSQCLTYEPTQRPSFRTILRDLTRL

Structure (SMILES)	EC50 [1]	IC50 [2]	IC50 [3]
CC[C@@H](C)NC(=O)c1cnc2c(NC)cc(Nc3cccn(-c4ccccn4)c3=O)nn12 [Example 74]	9 nM	170 nM	110 nM
CC[C@@H](C)NC(=O)c1cnc2c(NC)cc(Nc3cccn(-c4ccn(C)n4)c3=O)nn12 [Example 79]	6 nM	140 nM	30 nM
CNc1cc(Nc2cc(F)cn(-c3ccc(C)nn3)c2=O)nn2c(C(=O)NC3CCC3)cnc12 [Example 93]	12 nM	90 nM	30 nM
CNc1cc(Nc2cccn(-c3ccccn3)c2=O)nn2c(C(=O)NCCF)cnc12 [Example 101]	12 nM	140 nM	170 nM
CNc1cc(Nc2cccn(-c3cccnn3)c2=O)nn2c(C(=O)NC(C)C)cnc12 [Example 106]	13 nM	180 nM	160 nM
CNc1cc(Nc2cc(F)cn(CCOC)c2=O)nn2c(C(=O)NC3CC3)cnc12 [Example 118]	18 nM	270 nM	150 nM
CNc1cc(Nc2cccn(C3(C)CC3)c2=O)nn2c(C(=O)NCC(C)(C)CO)cnc12 [Example 163]	8 nM	240 nM	70 nM
CNc1cc(Nc2ccnn(-c3ccccc3)c2=O)nn2c(C(=O)N[C@@H]3C[C@@H]3F)cnc12 [Example 180]	17 nM	50 nM	20 nM
CNc1cc(Nc2cccn(-c3ccccn3)c2=O)nn2c(C(=O)NCc3nccs3)cnc12 [Example 190]	23 nM	260 nM	290 nM
CNc1cc(Nc2cccn(-c3ccccn3)c2=O)nn2c(C(=O)NCC(C)(C)CO)cnc12 [Example 197]	16 nM	60 nM	60 nM
CNc1cc(Nc2cccn(C)c2=O)nn2c(C(=O)NC(C)(C)C)cnc12 [Example 211]	57 nM	360 nM	490 nM
CNc1cc(Nc2cccn(C)c2=O)nn2c(C(=O)NCC3CCC3)cnc12 [Example 214]	73 nM	360 nM	810 nM
CNc1cc(Nc2cccn(C3CCN(C(=O)c4ncc[nH]4)CC3)c2=O)nn2c(C(=O)NC3CC3)cnc12 [Example 245]	7 nM	290 nM	260 nM

Other lines, results leading:

EC50 [1]	IC50 [2]	IC50 [3]	Structure (SMILES)
20 nM	210 nM	180 nM	CNc1cc(Nc2cccn(-c3cccc(F)n3)c2=O)nn2c(C(=O)N[C@@H]3CCOC3)cnc12 [Example 61]
7 nM	140 nM	110 nM	CNc1cc(Nc2cccn(-c3ccc(C)nn3)c2=O)nn2c(C(=O)NC3CC3)cnc12 [Example 63]
2 nM	200 nM	120 nM	CNc1cc(Nc2cccn(-c3ncc(C)cn3)c2=O)nn2c(C(=O)N[C@@H]3C[C@@H]3F)cnc12 [Example 83]
5 nM	340 nM	110 nM	CNc1cc(Nc2cccn(-c3cccc(C(C)O)n3)c2=O)nn2c(C(=O)NC3CC3)cnc12 (stereo not drawn) [Example 85]
6 nM	30 nM	30 nM	CNc1cc(Nc2cccn(-c3cccc(C(C)O)n3)c2=O)nn2c(C(=O)NC3CCC3)cnc12 (stereo not drawn) [Example 86]
4 nM	150 nM	80 nM	CNc1cc(Nc2cccn(-c3ccc(C(F)F)cc3)c2=O)nn2c(C(=O)NCC(C)(C)CO)cnc12 [Example 124]
8 nM	300 nM	190 nM	CNc1cc(Nc2cccn(-c3cccc(C#N)c3)c2=O)nn2c(C(=O)NC3CC3)cnc12 [Example 126]
14 nM	400 nM	320 nM	CNc1cc(Nc2cccn(-c3ccc(C(F)(F)F)cc3)c2=O)nn2c(C(=O)NCC(C)(CO)CO)cnc12 [Example 132]
19 nM	430 nM	200 nM	CNc1cc(Nc2cccn(-c3ccc(C(F)(F)F)cc3)c2=O)nn2c(C(=O)NCC3(CO)CC3)cnc12 [Example 133]
11 nM	170 nM	80 nM	CNc1cc(Nc2cccn(-c3ccc(C(F)(F)F)cc3)c2=O)nn2c(C(=O)NCC(C)(C)CO)cnc12 [Example 136]
14 nM	190 nM	150 nM	CNc1cc(Nc2cccn(-c3ccc(N4CCOCC4)cc3)c2=O)nn2c(C(=O)NC3(C#N)CC3)cnc12 [Example 140]
5 nM	30 nM	10 nM	CNc1cc(Nc2cccn(-c3cccc(F)n3)c2=O)nn2c(C(=O)N[C@@H]3C[C@@H]3F)cnc12 [Example 145]
7 nM	30 nM	20 nM	CNc1cc(Nc2cccn(-c3cc(C)n(C)n3)c2=O)nn2c(C(=O)NC3CCC3)cnc12 [Example 155]
29 nM	220 nM	380 nM	CCC(CC)CNC(=O)c1cnc2c(NC)cc(Nc3cccn(-c4ccccc4)c3=O)nn12 [Example 187]
21 nM	70 nM	230 nM	CNc1cc(Nc2cccn(-c3ccccc3)c2=O)nn2c(C(=O)N[C@H]3CCCC[C@H]3O)cnc12 [Example 188]
8 nM	350 nM	330 nM	CNc1cc(Nc2cccn(-c3ccc(S(C)(=O)=O)cc3)c2=O)nn2c(C(=O)NC3CC3)cnc12 [Example 202]
